{
  "source": "patent US20240165199A1",
  "about": "“PROX1 PREVENTS MYXOMATOUS VALVE DISEASE BY INHIBITING PDGF-B SIGNALING” (Oklahoma Medical Research Foundation, priority 2022, published 2024)",
  "key": {"[1]": {"target": "PDGFRα (Homo sapiens, UniProt P16234)", "sequence (P16234 24-1089, species assumed)": "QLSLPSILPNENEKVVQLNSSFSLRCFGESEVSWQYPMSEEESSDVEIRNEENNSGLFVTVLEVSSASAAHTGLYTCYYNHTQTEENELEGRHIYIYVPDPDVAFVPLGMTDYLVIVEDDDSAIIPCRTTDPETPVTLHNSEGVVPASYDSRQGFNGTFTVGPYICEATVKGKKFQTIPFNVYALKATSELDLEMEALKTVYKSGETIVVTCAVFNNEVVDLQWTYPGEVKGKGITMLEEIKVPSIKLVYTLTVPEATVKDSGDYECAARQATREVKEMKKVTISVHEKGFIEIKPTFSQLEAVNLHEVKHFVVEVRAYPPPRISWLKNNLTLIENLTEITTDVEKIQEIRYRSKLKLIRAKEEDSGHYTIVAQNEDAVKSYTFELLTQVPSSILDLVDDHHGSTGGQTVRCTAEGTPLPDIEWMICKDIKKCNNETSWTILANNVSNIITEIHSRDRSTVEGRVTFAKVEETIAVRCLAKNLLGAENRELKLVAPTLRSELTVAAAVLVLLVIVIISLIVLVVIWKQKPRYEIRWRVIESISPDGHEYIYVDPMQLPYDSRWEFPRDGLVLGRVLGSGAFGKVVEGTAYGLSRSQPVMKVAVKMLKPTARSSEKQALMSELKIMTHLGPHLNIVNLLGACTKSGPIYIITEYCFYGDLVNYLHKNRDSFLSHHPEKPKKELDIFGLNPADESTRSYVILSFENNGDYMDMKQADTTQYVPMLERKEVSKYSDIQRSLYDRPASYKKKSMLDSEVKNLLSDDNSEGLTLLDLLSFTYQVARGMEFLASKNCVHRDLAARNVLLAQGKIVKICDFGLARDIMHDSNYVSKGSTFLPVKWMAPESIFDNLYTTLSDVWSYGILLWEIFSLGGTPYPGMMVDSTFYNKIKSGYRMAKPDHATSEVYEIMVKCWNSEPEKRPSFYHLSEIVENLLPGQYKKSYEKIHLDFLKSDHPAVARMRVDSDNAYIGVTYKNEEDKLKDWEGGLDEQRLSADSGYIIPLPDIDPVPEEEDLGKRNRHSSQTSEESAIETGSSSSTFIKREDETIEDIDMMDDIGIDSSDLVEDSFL", "settings": "cited from earlier work"}, "[2]": {"target": "c-Kit (Homo sapiens, UniProt P10721)", "sequence (P10721 26-976)": "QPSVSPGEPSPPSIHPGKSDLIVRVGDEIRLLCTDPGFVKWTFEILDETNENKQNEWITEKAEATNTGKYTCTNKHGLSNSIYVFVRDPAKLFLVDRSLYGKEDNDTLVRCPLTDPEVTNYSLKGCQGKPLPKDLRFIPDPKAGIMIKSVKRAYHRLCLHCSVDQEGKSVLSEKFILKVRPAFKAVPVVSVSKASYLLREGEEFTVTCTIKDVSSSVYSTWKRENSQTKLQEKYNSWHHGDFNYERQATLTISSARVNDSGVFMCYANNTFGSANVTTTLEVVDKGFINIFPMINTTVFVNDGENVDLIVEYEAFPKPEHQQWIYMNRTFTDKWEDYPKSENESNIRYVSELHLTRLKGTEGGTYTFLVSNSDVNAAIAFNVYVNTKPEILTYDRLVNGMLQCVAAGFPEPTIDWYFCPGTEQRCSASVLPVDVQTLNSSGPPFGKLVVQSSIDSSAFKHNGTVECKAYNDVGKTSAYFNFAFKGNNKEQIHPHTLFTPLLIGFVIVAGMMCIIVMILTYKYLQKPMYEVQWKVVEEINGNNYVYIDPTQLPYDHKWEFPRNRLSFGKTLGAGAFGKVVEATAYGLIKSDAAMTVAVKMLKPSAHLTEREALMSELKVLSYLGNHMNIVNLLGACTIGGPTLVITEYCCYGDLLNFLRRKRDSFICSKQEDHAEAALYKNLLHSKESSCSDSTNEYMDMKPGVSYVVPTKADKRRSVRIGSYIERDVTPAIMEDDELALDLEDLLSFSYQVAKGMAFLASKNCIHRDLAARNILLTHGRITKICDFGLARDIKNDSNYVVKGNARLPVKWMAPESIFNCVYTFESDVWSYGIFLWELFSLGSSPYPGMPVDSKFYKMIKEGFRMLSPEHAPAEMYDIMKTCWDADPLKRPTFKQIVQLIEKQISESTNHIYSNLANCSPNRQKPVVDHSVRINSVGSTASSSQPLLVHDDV", "settings": "cited from earlier work"}, "[3]": {"target": "PDGFRβ (Homo sapiens, UniProt P09619)", "sequence (P09619 33-1106)": "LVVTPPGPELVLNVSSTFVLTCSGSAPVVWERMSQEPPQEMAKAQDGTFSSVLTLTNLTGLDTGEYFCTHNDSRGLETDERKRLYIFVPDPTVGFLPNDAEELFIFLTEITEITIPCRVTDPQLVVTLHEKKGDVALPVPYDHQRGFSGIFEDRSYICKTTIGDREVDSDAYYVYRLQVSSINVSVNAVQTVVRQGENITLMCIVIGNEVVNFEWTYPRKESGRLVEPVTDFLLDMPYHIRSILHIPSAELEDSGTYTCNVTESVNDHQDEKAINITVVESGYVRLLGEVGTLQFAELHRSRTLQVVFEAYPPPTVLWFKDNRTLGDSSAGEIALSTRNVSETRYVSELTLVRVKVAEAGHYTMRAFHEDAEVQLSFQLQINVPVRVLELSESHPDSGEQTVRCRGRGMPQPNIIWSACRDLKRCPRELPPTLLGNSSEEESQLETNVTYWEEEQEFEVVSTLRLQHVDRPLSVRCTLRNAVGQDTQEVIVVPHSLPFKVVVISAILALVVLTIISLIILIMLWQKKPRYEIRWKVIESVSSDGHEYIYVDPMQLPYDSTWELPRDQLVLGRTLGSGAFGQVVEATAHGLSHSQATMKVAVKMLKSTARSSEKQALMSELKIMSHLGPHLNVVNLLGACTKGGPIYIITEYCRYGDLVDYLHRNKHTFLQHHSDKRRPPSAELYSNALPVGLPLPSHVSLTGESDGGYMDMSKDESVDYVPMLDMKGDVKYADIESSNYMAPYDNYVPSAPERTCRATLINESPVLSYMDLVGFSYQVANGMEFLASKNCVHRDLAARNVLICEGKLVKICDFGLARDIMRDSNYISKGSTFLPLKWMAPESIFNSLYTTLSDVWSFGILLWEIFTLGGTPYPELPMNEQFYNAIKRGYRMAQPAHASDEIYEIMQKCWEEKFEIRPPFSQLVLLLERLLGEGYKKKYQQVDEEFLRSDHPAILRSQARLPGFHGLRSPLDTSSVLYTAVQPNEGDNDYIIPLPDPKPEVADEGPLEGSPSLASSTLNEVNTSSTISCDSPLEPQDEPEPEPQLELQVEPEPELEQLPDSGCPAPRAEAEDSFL", "settings": "not specific for PDGFRβ; cited from earlier work"}, "[4]": {"tested_on": "Prox1^ΔVEC mice", "settings": "50 mg/kg body weight/day oral; for aortic peak velocity: 24 weeks from 1 month of age, echocardiography, vs untreated Prox1^ΔVEC mice; for aortic peak velocity / platelet aggregate-like (thrombus-like) structures in aortic valves / abnormal elastin expression/distribution in aortic valves / aortic valve thickness (progressive thickening) / versican expression in aortic valves: 50 mg/kg/day; for platelet aggregate-like (thrombus-like) structures in aortic valves / abnormal elastin expression/distribution in aortic valves / aortic valve thickness (progressive thickening) / versican expression in aortic valves: 24 weeks; for platelet aggregate-like (thrombus-like) structures in aortic valves: Movat Pentachrome-stained sections; for abnormal elastin expression/distribution in aortic valves: downstream side of aortic valves; for aortic valve thickness (progressive thickening): histology, area of valve leaflets; for versican expression in aortic valves: immunohistochemistry; for valve defects / progression of valve disease: mice lacking Prox1 (Prox1^ΔVEC)"}, "[5]": {"tested_on": "patients with PDGFRβ hyperactivating mutations", "settings": "cited from earlier work"}},
  "note": "“Also recorded” adds a separate entry of the source. Like-named read-outs stand apart in the source and are kept apart here.",
  "data": [
    {"smiles": "Cc1ccc(NC(=O)c2ccc(CN3CCN(C)CC3)cc2)cc1Nc1nccc(-c2cccnc2)n1", "note": "[imatinib]", "values": [
      {"measurement": "inhibition of kinase activity", "setting": "[1]", "result": "inhibits the activity"},
      {"measurement": "inhibition of kinase activity", "setting": "[2]", "result": "inhibits the activity"},
      {"measurement": "inhibition of kinase activity", "setting": "[3]", "result": "inhibits the activity"},
      {"measurement": "elastin expression in mitral valves", "setting": "[4]; Prox1^ΔVEC mice, 6 months", "result": "significantly normalized"},
      {"measurement": "expression of SOX9 in the aortic and mitral valves", "setting": "[4]; Prox1^ΔVEC mice, 6 months", "result": "normalized"},
      {"measurement": "thickness of the mitral valves", "setting": "[4]; Prox1^ΔVEC mice, 6 months", "result": "did not reduce"},
      {"measurement": "versican expression in mitral valves", "setting": "[4]; Prox1^ΔVEC mice, 6 months", "result": "significantly normalized"},
      {"measurement": "aortic peak velocity", "setting": "[4]; Prox1^ΔVEC mice", "result": "preventing an increase in peak velocity"},
      {"measurement": "aortic peak velocity", "setting": "[4]; Prox1^ΔVEC mice, listed as Imb", "result": "lowered aortic peak velocity"},
      {"measurement": "platelet aggregate-like (thrombus-like) structures in aortic valves", "setting": "[4]; Prox1^ΔVEC mice", "result": "reduced by imatinib treatment"},
      {"measurement": "platelet aggregate-like (thrombus-like) structures in aortic valves", "setting": "[4]; Prox1^ΔVEC mice, listed as Imb", "result": "reduced"},
      {"measurement": "abnormal elastin expression/distribution in aortic valves", "setting": "[4]; Prox1^ΔVEC mice", "result": "significantly reduced"},
      {"measurement": "abnormal elastin expression/distribution in aortic valves", "setting": "[4]; Prox1^ΔVEC mice, listed as Imb", "result": "rescued"},
      {"measurement": "aortic valve thickness (progressive thickening)", "setting": "[4]; Prox1^ΔVEC mice", "result": "does not ameliorate the progressive thickening"},
      {"measurement": "aortic valve thickness (progressive thickening)", "setting": "[4]; Prox1^ΔVEC mice, listed as Imb", "result": "not reduced"},
      {"measurement": "versican expression in aortic valves", "setting": "[4]; Prox1^ΔVEC mice", "result": "reduced the expression of versican"},
      {"measurement": "versican expression in aortic valves", "setting": "[4]; Prox1^ΔVEC mice, listed as Imb", "result": "inhibited"},
      {"measurement": "valve defects / progression of valve disease", "setting": "[4]; 6 months", "result": "partially rescue the valve defects; also recorded: prevents the progression of valve disease"},
      {"measurement": "valve defects / progression of valve disease", "setting": "[4]; 6 months, listed as Imatinib", "result": "Attenuates Aortic Valve Degeneration"},
      {"measurement": "connective tissue disorders", "setting": "[5]", "result": "ameliorated"}
    ]}
  ]
}
